Measurements as given in article PMC8026785, “The pharmacokinetics of [^18F]UCB-H revisited in the healthy non-human primate brain” (EJNMMI Research, 2021).
Several values for one entry are separate records, joined by “and”; a condition that tells them apart may be missing. Identical values can stand only once.

Target: T1, SV2A (Macaca fascicularis, UniProt Q4R4X3)
T1 construct: The current study evaluates [^18F]UCB-H pharmacokinetics in healthy NHPs; from tissue; host or cells: brain of living healthy cynomolgus monkeys (in vivo PET)
Assay: Brain PET kinetic modelling (1TCM, 2TCM, 2TCM-c, Logan), test-retest
Type: in vivo, cynomolgus monkeys (Macaca fascicularis)
Experimental: All four non-human primates (NHP) underwent a 2-h (2 h) test and retest PET scan; two NHP underwent an additional 4-h (4 h) retest PET scan. Three NHP underwent one 4-h (4 h) displacement PET scan. Arterial blood sampling was performed during test and retest scans with PET imaging spaced by at least 3 weeks between each scan. To this end, the femoral artery opposite to the saphenous vein used for radioligand injection was cannulated. For the 2-h (2 h) scans, we collected in total 28 blood samples of 1 mL: 16 samples during the first 5 min followed by […] every 5 min and […] every 10 min. For the 4 h scans, we collected an additional 6 samples every 20 min during the last two hours (34 samples in total). Larger samples (2 – 3 mL) were collected at 5, 15, 30, 60, 90, 120 min (2 h) and at 180, 240 min (4 h) for metabolite analysis. Displacement of [^18F]UCB-H was done by intravenous (IV) administration 90 min after [^18F]UCB-H injection of a bolus of 30 mg/kg LEV, or of 80 µg/kg (≈250 nmol/kg) or 5 mg/kg (≈15 µmol/kg) of cold [^19F]-UCB-H. Full experimental design of all NHP is outlined in Additional file 1: Table 1.
PET imaging was performed on the microPET FOCUS220 (Siemens) under standard anesthesia and monitoring procedures. Data acquisition started with the IV bolus injection of [^18F]UCB-H (32.9 ± 1.0 MBq/kg, 0.35 ± 0.07 µg/kg). Dynamic PET images were reconstructed using standard OSEM-2D algorithms while correcting for radioactive decay, scatter, attenuation and detectors inhomogeneity, which were measured prior to PET scanning using respectively ^57Co and ^68Ge external sources.
PET image analysis was performed using PMOD software version 3.8 (PMOD Technologies Ltd., Zurich, Suisse). After individual co-registration of PET-MR images, a cynomolgus atlas published by Ballanger and coworkers was normalized to PET images to extract time activity curves in different brain regions. Volumes of interest (VOI) were cerebral white matter (16.7 cm^3), striatum (0.24 cm^3), thalamus (0.89 cm^3), cerebellum (3.83 cm^3), frontal—(2.50 cm^3), parietal—(5.35 cm^3), and temporal (8.22 cm^3) cortex, and whole brain (72.2 cm^3) as a composite region of all regions in the atlas. [^18F]UCB-H pharmacokinetics were evaluated by analyzing the time activity curves of the test- and retest scans using 1- and 2-tissue compartment models (unconstrained and constrained with global K1/k2 coupled fit across all regions, further referred to as 2TCM and 2TCM-c), and Logan graphical analysis with a fixed t* at 60 min [33] using the arterial plasma input function corrected for radio-metabolites to derive the volume of distribution in each region. Percentage standard error (%SE) was estimated from the theoretical parameter covariance matrix. Only reliable estimates (%SE less than 25%) were included in the current analyses. For the three drug studies, percent displacement of the total activity in the whole brain was estimated relative to an average baseline constructed from the two 4 h baseline studies. Briefly, Standardized Uptake Value (SUV) time activity curves (TACs) were calculated for the two baseline and the three displacement studies. Then, each curve was normalized to the SUV at t = 90 min, corresponding to the timeframe immediately before the administration of the drugs in the displacement studies. Baseline curves were averaged and the percent displacement of total activity was calculated as (baseline-displacement)/baseline at a given time post drug administration (see “Results”).
Statistical analysis was performed using R software (version 3.3.1.). Plasma, intact parent fraction and time activity curves were statistically compared between subjects using a one-factor variance analysis. Absolute Test–Retest variability (aTRV) of PET quantification parameters was calculated as ABS(test—retest) / AVERAGE(test, retest). […]

[1] = White Matter, Retest, individual NHP
[2] = White Matter, Test, individual NHP

T1 sequence (Q4R4X3 whole entry): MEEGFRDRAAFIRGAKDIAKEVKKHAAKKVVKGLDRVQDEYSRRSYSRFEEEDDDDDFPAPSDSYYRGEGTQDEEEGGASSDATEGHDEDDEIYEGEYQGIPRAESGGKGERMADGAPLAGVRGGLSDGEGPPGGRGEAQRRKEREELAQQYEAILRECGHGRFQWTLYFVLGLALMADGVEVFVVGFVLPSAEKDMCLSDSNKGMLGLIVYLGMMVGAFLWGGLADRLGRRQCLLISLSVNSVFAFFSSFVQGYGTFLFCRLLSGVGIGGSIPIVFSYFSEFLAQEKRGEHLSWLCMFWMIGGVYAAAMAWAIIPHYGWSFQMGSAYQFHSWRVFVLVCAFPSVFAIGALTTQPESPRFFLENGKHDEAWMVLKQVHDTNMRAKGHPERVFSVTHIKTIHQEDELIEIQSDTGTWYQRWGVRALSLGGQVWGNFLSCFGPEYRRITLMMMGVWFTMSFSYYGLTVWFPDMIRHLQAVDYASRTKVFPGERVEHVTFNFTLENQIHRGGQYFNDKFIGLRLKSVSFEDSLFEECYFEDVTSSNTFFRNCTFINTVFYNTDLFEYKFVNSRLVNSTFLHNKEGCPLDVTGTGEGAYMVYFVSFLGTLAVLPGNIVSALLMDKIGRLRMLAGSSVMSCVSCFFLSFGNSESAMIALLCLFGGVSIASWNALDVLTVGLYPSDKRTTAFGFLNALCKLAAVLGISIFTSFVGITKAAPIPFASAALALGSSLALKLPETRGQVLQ

k3/k4 (2TCM-c) (Thalamus, Retest, individual NHP): 0.64 and 2.00 and 0.90 and 0.33
VT (1TCM) (Thalamus, Retest, mean): 13.4 mL/cm^3
VT (2TCM) (Thalamus, Retest, mean): 13.0 mL/cm^3
VT (2TCM-c) (Thalamus, Retest, mean): 14.2 mL/cm^3
VT (Logan (t* = 60)) (Thalamus, Retest, mean): 14.3 mL/cm^3
k3/k4 (BPND) (2TCM-c) (Thalamus, Retest, mean): 0.97
VT (2TCM) (Thalamus, Test, individual NHP): 13.65 ml/cm^3 and 17.60 ml/cm^3
k3/k4 (2TCM) (Thalamus, Test, individual NHP): 0.82
k3/k4 (2TCM-c) (Thalamus, Test, individual NHP): 1.00 and 1.56 and 1.18 and 0.38
VT (1TCM) (Thalamus, Test, mean): 13.3 mL/cm^3
VT (2TCM) (Thalamus, Test, mean): 15.6 mL/cm^3
VT (2TCM-c) (Thalamus, Test, mean): 15.0 mL/cm^3
VT (Logan (t* = 60)) (Thalamus, Test, mean): 14.9 mL/cm^3
k3/k4 (BPND) (2TCM-c) (Thalamus, Test, mean): 1.03
k3/k4 (2TCM) [1]: 6.72
k3/k4 (2TCM-c) [1]: 0.46 and 1.76 and 0.27
VT (2TCM) [2]: 11.61 ml/cm^3 and 16.36 ml/cm^3
k3/k4 (2TCM) [2]: 0.94
k3/k4 (2TCM-c) [2]: 1.41 and 1.09
ICC of 2TCM-c VT (White matter): 0.43
ICC of Logan (t* = 60) VT (White matter): 0.62
aTRV of 2TCM-c VT (White matter): 24%
aTRV of Logan (t* = 60) VT (White matter): 13%
VT (1TCM) (White matter, Retest, mean): 12.5 mL/cm^3
VT (2TCM) (White matter, Retest, mean): 12.6 mL/cm^3
VT (2TCM-c) (White matter, Retest, mean): 13.7 mL/cm^3
VT (Logan (t* = 60)) (White matter, Retest, mean): 13.6 mL/cm^3
k3/k4 (BPND) (2TCM-c) (White matter, Retest, mean): 0.83
VT (1TCM) (White matter, Test, mean): 12.3 mL/cm^3
VT (2TCM) (White matter, Test, mean): 14.0 mL/cm^3
VT (2TCM-c) (White matter, Test, mean): 13.8 mL/cm^3
VT (Logan (t* = 60)) (White matter, Test, mean): 13.9 mL/cm^3
k3/k4 (BPND) (2TCM-c) (White matter, Test, mean): 1.25
BPND lower compared to [^11C]UCB-J and other [^18F]-labelled SV2A radioligands (cynomolgus NHP): 3 to fourfold lower
VT lower compared to [^11C]UCB-J and other [^18F]-labelled SV2A radioligands (cynomolgus NHP): ~ 50%
free fraction in tissue fND (cynomolgus monkey, in vivo): 6.1 ± 1.3% and ~ 6%
tissue influx parameter K1 (grey matter regions, 2TCM and 2TCM-c): 0.37 ± 0.01 mL/cm^3/min
average VND (K1/k2 from 2TCM-c) (over all VOIs and animals): 7.89 ± 1.23 mL/cm^3
Structure (SMILES): O=C1C[C@H](c2cc(F)c(F)c(F)c2)CN1Cc1ccncc1[18F] [[^18F]UCB-H]
K1 (2TCM) (Thalamus, Test, individual NHP): 0.21 ml/cm^3 /min and 0.24 ml/cm^3 /min and 0.45 ml/cm^3 /min and 0.53 ml/cm^3 /min
K1 (2TCM-c) (Thalamus, Test, individual NHP): 0.20 ml/cm^3 /min and 0.25 ml/cm^3 /min and 0.48 ml/cm^3 /min and 0.54 ml/cm^3 /min
K1/k2 (2TCM) (Thalamus, Test, individual NHP): 11.03 ml/cm^3 and 7.51 ml/cm^3 and 12.45 ml/cm^3 and 12.69 ml/cm^3
K1/k2 (2TCM-c) (Thalamus, Test, individual NHP): 7.86 ml/cm^3 and 4.35 ml/cm^3 and 8.22 ml/cm^3 and 10.99 ml/cm^3
VT (1TCM) (Thalamus, Test, individual NHP): 12.88 ml/cm^3 and 10.42 ml/cm^3 and 16.04 ml/cm^3 and 14.02 ml/cm^3
VT (2TCM-c) (Thalamus, Test, individual NHP): 17.47 ml/cm^3 and 11.10 ml/cm^3 and 16.27 ml/cm^3 and 15.12 ml/cm^3
VT (Logan) (Thalamus, Test, individual NHP): 14.58 ml/cm3 and 12.30 ml/cm3 and 17.00 ml/cm3 and 15.59 ml/cm3
K1 (2TCM) [1]: 0.29 ml/cm^3 /min and 0.49 ml/cm^3 /min and 0.32 ml/cm^3 /min and 0.35 ml/cm^3 /min
K1 (2TCM-c) [1]: 0.30 ml/cm^3 /min and 0.44 ml/cm^3 /min and 0.32 ml/cm^3 /min and 0.35 ml/cm^3 /min
K1/k2 (2TCM) [1]: 1.66 ml/cm^3 and 10.04 ml/cm^3 and 11.74 ml/cm^3
K1/k2 (2TCM-c) [1]: 7.25 ml/cm^3 and 4.64 ml/cm^3 and 9.07 ml/cm^3 and 10.70 ml/cm^3
VT (1TCM) [1]: 10.59 ml/cm^3 and 12.63 ml/cm^3 and 13.80 ml/cm^3 and 12.91 ml/cm^3
VT (2TCM) [1]: 10.58 ml/cm^3 and 12.82 ml/cm^3 and 14.29 ml/cm^3
VT (2TCM-c) [1]: 10.59 ml/cm^3 and 12.79 ml/cm^3 and 18.23 ml/cm^3 and 13.35 ml/cm^3
VT (Logan) [1]: 11.11 ml/cm3 and 12.93 ml/cm3 and 16.97 ml/cm3 and 13.41 ml/cm3
K1 (2TCM) [2]: 0.17 ml/cm^3 /min and 0.19 ml/cm^3 /min and 0.41 ml/cm^3 /min
K1 (2TCM-c) [2]: 0.17 ml/cm^3 /min and 0.20 ml/cm^3 /min and 0.42 ml/cm^3 /min
K1/k2 (2TCM) [2]: 9.57 ml/cm^3 and 6.00 ml/cm^3 and 9.76 ml/cm^3 and 11.24 ml/cm^3
K1/k2 (2TCM-c) [2]: 7.86 ml/cm^3 and 4.35 ml/cm^3 and 8.22 ml/cm^3 and 10.99 ml/cm^3
VT (1TCM) [2]: 12.00 ml/cm^3 and 9.44 ml/cm^3 and 14.88 ml/cm^3 and 12.88 ml/cm^3
VT (2TCM-c) [2]: 15.44 ml/cm^3 and 10.47 ml/cm^3 and 15.61 ml/cm^3
VT (Logan) [2]: 14.19 ml/cm3 and 11.20 ml/cm3 and 15.99 ml/cm3 and 14.37 ml/cm3
